Measurements taken from PubChem BioAssay (NCI).
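Results reflect a 48-hour exposure of cells in 96-well plates to compound at five concentrations. GI50 is the concentration that inhibits growth by half. TGI is the concentration that stops growth completely.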

Columns and labels:
Assay in all cases: DTP human tumour cell line panel, 48 h
DU-145 prostate = test system: DU-145 prostate
NCI-H460 lung = test system: NCI-H460 lung
CCRF-CEM leukemia = test system: CCRF-CEM leukemia
NCI/ADR-RES ovarian = test system: NCI/ADR-RES ovarian
EKVX NSCLC = test system: EKVX NSCLC
MOLT-4 leukemia = test system: MOLT-4 leukemia
SK-MEL-5 melanoma = test system: SK-MEL-5 melanoma
SF-539 CNS = test system: SF-539 CNS
OVCAR-4 ovarian = test system: OVCAR-4 ovarian
SNB-19 CNS = test system: SNB-19 CNS
PC-3 prostate = test system: PC-3 prostate
RXF 393 renal = test system: RXF 393 renal
HOP-62 NSCLC = test system: HOP-62 NSCLC
TK-10 renal = test system: TK-10 renal
IGROV1 ovarian = test system: IGROV1 ovarian
ACHN renal = test system: ACHN renal
U251 CNS = test system: U251 CNS
MCF7 breast = test system: MCF7 breast
A549 NSCLC = test system: A549 NSCLC
UO-31 renal = test system: UO-31 renal
SN12C renal = test system: SN12C renal
NCI-H226 lung = test system: NCI-H226 lung
CAKI-1 renal = test system: CAKI-1 renal
SF-268 CNS = test system: SF-268 CNS
MALME-3M melanoma = test system: MALME-3M melanoma
HOP-92 NSCLC = test system: HOP-92 NSCLC
SK-MEL-28 melanoma = test system: SK-MEL-28 melanoma
HCT-15 colon = test system: HCT-15 colon
OVCAR-5 ovarian = test system: OVCAR-5 ovarian
NCI-H23 lung = test system: NCI-H23 lung
LOX IMVI melanoma = test system: LOX IMVI melanoma
NCI-H522 lung = test system: NCI-H522 lung
HCC-2998 colon = test system: HCC-2998 colon
SF-295 CNS = test system: SF-295 CNS
MDA-MB-468 breast = test system: MDA-MB-468 breast
KM12 colon = test system: KM12 colon
HT29 colon = test system: HT29 colon
MDA-MB-435 = test system: MDA-MB-435
SK-MEL-2 melanoma = test system: SK-MEL-2 melanoma
T-47D breast = test system: T-47D breast
UACC-62 melanoma = test system: UACC-62 melanoma
RPMI-8226 leukemia = test system: RPMI-8226 leukemia
SK-OV-3 ovarian = test system: SK-OV-3 ovarian
SW-620 colon = test system: SW-620 colon
SR leukemia = test system: SR leukemia
UACC-257 melanoma = test system: UACC-257 melanoma
HS 578T breast = test system: HS 578T breast
COLO 205 colon = test system: COLO 205 colon
786-0 renal = test system: 786-0 renal
OVCAR-8 ovarian = test system: OVCAR-8 ovarian
HCT-116 colon = test system: HCT-116 colon
MDA-MB-231 breast = test system: MDA-MB-231 breast
OVCAR-3 ovarian = test system: OVCAR-3 ovarian
A498 renal = test system: A498 renal
M14 melanoma = test system: M14 melanoma
BT-549 breast = test system: BT-549 breast
HL-60(TB) leukemia = test system: HL-60(TB) leukemia
SNB-75 CNS = test system: SNB-75 CNS
K-562 leukemia = test system: K-562 leukemia

`O=C(Nc1ccc(-c2ccc3c(c2)NC(=O)/C3=C\c2ccc[nH]2)cc1)Nc1cccc(Cl)c1` showed a GI50 (DU-145 prostate) of 4.76 µM, a TGI (DU-145 prostate) of 92.8 µM and a GI50 (NCI-H460 lung) of 0.766 µM. The TGI (NCI-H460 lung) was 4 µM, the GI50 (CCRF-CEM leukemia) was 0.846 µM and the TGI (CCRF-CEM leukemia) was 4.41 µM. It also gave a GI50 (NCI/ADR-RES ovarian) of 2.14 µM, a TGI (NCI/ADR-RES ovarian) of 6.01 µM and a GI50 (EKVX NSCLC) of 0.775 µM. For the same molecule, the TGI (EKVX NSCLC) was 10.7 µM, the GI50 (MOLT-4 leukemia) was 0.895 µM and the TGI (MOLT-4 leukemia) was 11.1 µM. The GI50 (SK-MEL-5 melanoma) was 1.88 µM, the TGI (SK-MEL-5 melanoma) was 4.5 µM and the GI50 (SF-539 CNS) was 1.43 µM. For the same molecule, the TGI (SF-539 CNS) was 3.06 µM, the GI50 (OVCAR-4 ovarian) was 1.76 µM and the TGI (OVCAR-4 ovarian) was 9.71 µM. It also gave a GI50 (SNB-19 CNS) of 4.7 µM, a TGI (SNB-19 CNS) of 35.8 µM and a GI50 (PC-3 prostate) of 2.19 µM. The TGI (PC-3 prostate) was 11.2 µM, the GI50 (RXF 393 renal) was 2.07 µM and the TGI (RXF 393 renal) was 4.52 µM. The GI50 (HOP-62 NSCLC) was 1.99 µM, the TGI (HOP-62 NSCLC) was 6.15 µM and the GI50 (TK-10 renal) was 2.88 µM. The TGI (TK-10 renal) was 9.85 µM, the GI50 (IGROV1 ovarian) was 1.7 µM and the TGI (IGROV1 ovarian) was 3.78 µM. The GI50 (ACHN renal) was 1.81 µM, the TGI (ACHN renal) was 6.57 µM and the GI50 (U251 CNS) was 2.98 µM. The TGI (U251 CNS) was 11.6 µM, the GI50 (MCF7 breast) was 0.329 µM and the TGI (MCF7 breast) was 7.58 µM. The GI50 (A549 NSCLC) was 2.09 µM, the TGI (A549 NSCLC) was 7.09 µM and the GI50 (UO-31 renal) was 1.77 µM. It also gave a TGI (UO-31 renal) of 12.7 µM, a GI50 (SN12C renal) of 4.44 µM and a TGI (SN12C renal) of 24.3 µM. The GI50 (NCI-H226 lung) was 2.51 µM, the TGI (NCI-H226 lung) was 9.27 µM and the GI50 (CAKI-1 renal) was 1.33 µM. The TGI (CAKI-1 renal) was 6.39 µM, the GI50 (SF-268 CNS) was 4.6 µM and the TGI (SF-268 CNS) was 60.9 µM. The GI50 (MALME-3M melanoma) was 2.32 µM, the TGI (MALME-3M melanoma) was 7.2 µM and the GI50 (HOP-92 NSCLC) was 4.81 µM. For the same molecule, the TGI (HOP-92 NSCLC) was 24.4 µM, the GI50 (SK-MEL-28 melanoma) was 3.09 µM and the TGI (SK-MEL-28 melanoma) was 10.2 µM. It also gave a GI50 (HCT-15 colon) of 1.9 µM, a TGI (HCT-15 colon) of 10.8 µM and a GI50 (OVCAR-5 ovarian) of 1.78 µM. The TGI (OVCAR-5 ovarian) was 3.76 µM, the GI50 (NCI-H23 lung) was 1.08 µM and the TGI (NCI-H23 lung) was 3.79 µM. It also gave a GI50 (LOX IMVI melanoma) of 1.53 µM, a TGI (LOX IMVI melanoma) of 3.39 µM and a GI50 (NCI-H522 lung) of 1.6 µM. The TGI (NCI-H522 lung) was 5.1 µM, the GI50 (HCC-2998 colon) was 1.78 µM and the TGI (HCC-2998 colon) was 5.61 µM. For the same molecule, the GI50 (SF-295 CNS) was 1.9 µM, the TGI (SF-295 CNS) was 5.02 µM and the GI50 (MDA-MB-468 breast) was 0.286 µM. It also gave a TGI (MDA-MB-468 breast) of 0.838 µM, a GI50 (KM12 colon) of 0.0672 µM and a TGI (KM12 colon) of 2 µM. For the same molecule, the GI50 (HT29 colon) was 1.86 µM, the TGI (HT29 colon) was 4.54 µM and the GI50 (MDA-MB-435) was 1 µM. The TGI (MDA-MB-435) was 14.1 µM, the GI50 (SK-MEL-2 melanoma) was 2.2 µM and the TGI (SK-MEL-2 melanoma) was 6.05 µM. For the same molecule, the GI50 (T-47D breast) was 0.424 µM, the TGI (T-47D breast) was 5.36 µM and the GI50 (UACC-62 melanoma) was 2.1 µM. It also gave a TGI (UACC-62 melanoma) of 6.03 µM, a GI50 (RPMI-8226 leukemia) of 2.62 µM and a TGI (RPMI-8226 leukemia) of 15.3 µM. It also gave a GI50 (SK-OV-3 ovarian) of 3.43 µM, a TGI (SK-OV-3 ovarian) of 14.4 µM and a GI50 (SW-620 colon) of 2.29 µM. The TGI (SW-620 colon) was 11.7 µM, the GI50 (SR leukemia) was 1.27 µM and the TGI (SR leukemia) was 32.5 µM. It also gave a GI50 (UACC-257 melanoma) of 3.42 µM, a TGI (UACC-257 melanoma) of 24.5 µM and a GI50 (HS 578T breast) of 2.73 µM. The TGI (HS 578T breast) was 8.74 µM, the GI50 (COLO 205 colon) was 1.92 µM and the TGI (COLO 205 colon) was 3.79 µM. For the same molecule, the GI50 (786-0 renal) was 2.42 µM, the TGI (786-0 renal) was 7.45 µM and the GI50 (OVCAR-8 ovarian) was 2.44 µM. For the same molecule, the TGI (OVCAR-8 ovarian) was 6.53 µM, the GI50 (HCT-116 colon) was 1.68 µM and the TGI (HCT-116 colon) was 11.7 µM. The GI50 (MDA-MB-231 breast) was 1.64 µM, the TGI (MDA-MB-231 breast) was 3.86 µM and the GI50 (OVCAR-3 ovarian) was 1.69 µM. It also gave a TGI (OVCAR-3 ovarian) of 3.85 µM, a GI50 (A498 renal) of 3.46 µM and a TGI (A498 renal) of 11.1 µM. For the same molecule, the GI50 (M14 melanoma) was 3.23 µM, the TGI (M14 melanoma) was 26.1 µM and the GI50 (BT-549 breast) was 2.33 µM. For the same molecule, the TGI (BT-549 breast) was 6.65 µM, the GI50 (HL-60(TB) leukemia) was 1.64 µM and the TGI (HL-60(TB) leukemia) was 14.5 µM. It also gave a GI50 (SNB-75 CNS) of 2.97 µM, a TGI (SNB-75 CNS) of 7.93 µM and a GI50 (K-562 leukemia) of 1.09 µM. For the same molecule, the TGI (K-562 leukemia) was > 100 µM.
